This is an account of results in publication PMC9118553, “In Vivo Bioconcentration of 10 Anionic Surfactants in Rainbow Trout Explained by In Vitro Data on Partitioning and S9 Clearance” (Environmental Science & Technology, 2022).

Where two headings read alike, the source gives them in different places.

Data set [1] in a line: In vivo bioconcentration experiment with a mixture of anionic surfactants, flow-through aquaria, 10 °C, pH 7.8. Details: species or system rainbow trout. The following applies: rainbow trout, whole fish homogenate, other: waterborne exposure in flow-through aquaria; for k el: read-out: Elimination rate constant kT (converted). The essentials: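 Juvenile rainbow trout exposed to a 10-surfactant mixture for 4 days, then 7-day depuration, in flow-through aquaria at 10 °C, pH 7.8. Whole-fish homogenates and water analysed by LC-MS/MS against BEHP internal standard. kU, kT and BCF (=kU/kT) estimated by joint Bayesian model including water-concentration uncertainty.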

Another data set deals with rainbow trout. The following applies: rainbow trout carcass; cited from earlier work.
Details of data set [2]: method as in REACH dossier. The note with it: method as noted in the cell (shake flask, solubility ratio, HPLC, BCFBAF, pH); ref REACH dossier; cited from earlier work.
For data set [3] the following is noted: ref REACH dossier; cited from earlier work.

For `CCCCC(CC)COC(=O)CC(C(=O)OCC(CC)CCCC)S(=O)(=O)O` (centres unmarked) [DOSS, bis(2-ethylhexyl)sulfosuccinate], the k el in data set [1] (26 μg L^–1, pH 7.8, determined using nominal concentrations in water) was 1.56e-05 s⁻¹; in data set [1] (26 μg L^–1, pH 7.8, from measured concentrations in water, Bayesian estimate, 95% credible interval in brackets), 1.75e-05 s⁻¹; in data set [1] (pH 7.8, measured concentrations in water, simpler estimation method (Text S3), 95% confidence intervals in brackets) it was 1.78e-05 s⁻¹. In data set [1] (26 μg L^–1, pH 7.8, elimination phase, 97 h, individual fish), the concentration at 97 h was determined as 57 ng/g. In addition, the concentration at 98 h in data set [1] (26 μg L^–1, pH 7.8, elimination phase, 98 h, individual fish) is 47 ng/g. Besides, the concentration at 103 h in data set [1] (26 μg L^–1, pH 7.8, elimination phase, 103 h, individual fish) turned out to be 35 ng/g. Besides, the concentration at 128 h in data set [1] (26 μg L^–1, pH 7.8, elimination phase, 128 h, individual fish) amounted to 13.9 ng/g. Besides, in data set [1] (26 μg L^–1, pH 7.8, exposure phase, 2 h, individual fish), the concentration at 2 h was found to be 8.5 ng/g. The concentration at 3 h in data set [1] (26 μg L^–1, pH 7.8, exposure phase, 3 h, individual fish) came to 14.9 ng/g. Further, in data set [1] (26 μg L^–1, pH 7.8, exposure phase, 6 h, individual fish), the concentration at 6 h worked out at 36 ng/g. For the same compound, in data set [1] (26 μg L^–1, pH 7.8, exposure phase, 24 h, individual fish), the concentration at 24 h was 66 ng/g. Besides, in data set [1] (26 μg L^–1, pH 7.8, exposure phase, 48 h, individual fish), the concentration at 48 h was determined as 48 ng/g. For the same compound, in data set [1] (26 μg L^–1, pH 7.8, exposure phase, 72 h, individual fish), the concentration at 72 h was found to be 50 ng/g. The concentration at 96 h in data set [1] (26 μg L^–1, pH 7.8, exposure phase, 96 h, individual fish) was 84 ng/g. Further, the BCF with rainbow trout is on record as 3.78 L kg^–1. Further, the LogKow in data set [2] is given as 2. For the same compound, the “Degradation information ~28d-sludge test (% degradable)” value in data set [3] is recorded as 91.2-100%.
